The values below come from article PMC10125213 (Journal of Molecular Biology, 2023).

The IC50 is the concentration needed to halve the response being measured. The low end stands for greater potency in that assay, the high end for weaker potency in that assay.

Some targets named below: BA.2 S protein (Severe acute respiratory syndrome coronavirus 2, UniProt P0DTC2, A27S/D405N/D614G/D796Y/DEL24-26/E484A/G142D/G339D/H655Y/K417N/N440K/N501Y/N679K/N764K/N969K/P681H/Q493R/Q498R/Q954H/R408S/S371F/S373P/S375F/S477N/T19I/T376A/T478K/V213G/Y505H); BA.4/5 S protein (Severe acute respiratory syndrome coronavirus 2, UniProt P0DTC2, A27S/D405N/D614G/D796Y/DEL24-26/DEL69-70/E484A/F486V/G142D/G339D/H655Y/K417N/L452R/N440K/N501Y/N679K/N764K/N969K/P681H/Q498R/Q954H/R408S/S371F/S373P/S375F/S477N/T19I/T376A/T478K/V213G/Y505H); Omicron (BA.1) S protein (Severe acute respiratory syndrome coronavirus 2, UniProt P0DTC2, A67V/D614G/D796Y/DEL143-145/DEL211-211/DEL69-70/E484A/G142D/G339D/G446S/G496S/H655Y/INS214EPE/K417N/L212I/L981F/N440K/N501Y/N679K/N764K/N856K/N969K/P681H/Q493K/Q498R/Q954H/S371L/S373P/S375F/S477N/T478K/T547K/T95I/Y505H); Omicron RBD (Severe acute respiratory syndrome coronavirus 2, UniProt P0DTC2, E484A/G339D/G446S/G496S/K417N/N440K/N501Y/Q493K/Q498R/S371L/S373P/S375F/S477N/T478K/Y505H).

Common to all, as to type: binding, SARS-CoV-2
Assay [1] has as its system RBM mutant RBD protein derived from BA.2.
The target in assay [2] is RBM mutant RBD protein derived from BA.4/5 (Severe acute respiratory syndrome coronavirus 2, UniProt P0DTC2, E484A/F486V/L452R/N440K/N501Y/Q498R/S477N/T478K/Y505H).

In the case of `N[C@@H](CCC(=O)N[C@@H](CS)C(=O)NCC(=O)O)C(=O)O` [GSH, reduced glutathione], the 50% inhibitory concentration (IC50) on BA.2 S protein, against BA.4/5 S protein and against Omicron (BA.1) S protein was less than 10 mM throughout.

Regarding `O=C(O)CCP(CCC(=O)O)CCC(=O)O` [TCEP, tris-(2-carboxyethyl)phosphine], the “inhibition of activity of Omicron RBD” value against Omicron RBD is greater than 80%. Moreover, the “sensitivity to TCEP compared to WT protein” value in assay [1] and in assay [2] was “enhanced sensitivities” in each case.
